Activity calls are given as the source filed them. The calls are words filed in the database; no cut-off is given here.
Assays:
[1] = test system: MES-SA/Dx5; assay: Antiproliferative activity against multidrug-resistant human MES-SA/Dx5 cells assessed as reduction in cell viability incubated for 72 hrs by prestoblue dye based assay; assay type: functional; conditions: MES-SA/Dx5, 72 h
[2] = test system: RL; assay: Antiproliferative activity against human RL cells assessed as reduction in cell viability incubated for 72 hrs by MTT assay; assay type: functional, cell-based
[3] = test system: A2780; assay: Antiproliferative activity against human A2780 cells assessed as reduction in cell viability incubated for 72 hrs by MTT assay; assay type: functional, cell-based; conditions: A2780, 72 h
[4] = test system: MIA PaCa-2; assay: Antiproliferative activity against human MIA PaCa-2 cells assessed as reduction in cell viability incubated for 72 hrs by MTT assay; assay type: functional, cell-based; conditions: MIA PaCa-2, 72 h
[5] = molecular target: T1, Tubulin (Homo sapiens) (UniProt P68371+Q9H4B7+P0DPH7+P68366+Q13509+Q71U36+P04350+Q3ZCM7+P07437+P68363+Q9BQE3+Q6PEY2+Q13885+Q9BVA1+Q9BUF5); assay: Inhibition of tubulin polymerization in human HeLa cells assessed as dynamic tyrosinated microtubules content at 14 uM by incubated for 2 hrs by immunofluorescence staining based assay; assay type: cell-based
[6] = molecular target: Tubulin; assay: Inhibition of tubulin polymerization in human HeLa cells assessed as dynamic tyrosinated microtubules content by incubated for 2 hrs by immunofluorescence staining based assay; assay type: cell-based
[7] = test system: RL; assay: Induction of cell cycle arrest in human RL cells assessed as increase in accumulation in subG0/G1 phase at 10 nM incubated for 48 hrs by PI staining based flow cytometry analysis (reference value: 8 %); assay type: functional
[8] = test system: RL; assay: Induction of cell cycle arrest in human RL cells assessed as increase in accumulation in subG0/G1 phase at 10 nM incubated for 24 hrs by PI staining based flow cytometry analysis (reference value: 4.5 %); assay type: functional
[9] = test system: RL; assay: Induction of cell cycle arrest in human RL cells assessed as increase in accumulation in subG0/G1 phase at 1 nM incubated for 48 hrs by PI staining based flow cytometry analysis (reference value: 8 %); assay type: functional
[10] = test system: RL; assay: Induction of cell death in human RL cells assessed as cell gating level at 1 to 10 nM measured upto 48 hrs by PI staining based flow cytometry analysis (reference value: 80 to 85 %); assay type: functional; conditions: dose 1-10 nM, time hrs <=48
[11] = test system: RL; assay: Induction of cell cycle arrest in human RL cells assessed as increase in accumulation in G2/M phase at 10 nM incubated for 24 hrs by PI staining based flow cytometry analysis (reference value: 23.3 %); assay type: functional
[12] = test system: RL; assay: Induction of cell cycle arrest in human RL cells assessed as effect on cell cycle distribution at 1 nM incubated for 48 hrs by PI staining based flow cytometry analysis (reference value: 8 %); assay type: functional
[13] = molecular target: T1, Tubulin (Homo sapiens); assay: Inhibition of tubulin polymerization in human HeLa cells assessed as dynamic tyrosinated microtubules content at 2 uM by incubated for 2 hrs by immunofluorescence staining based assay; assay type: cell-based
[14] = molecular target: T1, Tubulin (Homo sapiens); assay: Inhibition of tubulin polymerization in human HeLa cells assessed as dynamic tyrosinated microtubules content at 1 uM by incubated for 2 hrs by immunofluorescence staining based assay; assay type: cell-based

Row | IC50 [3] [nM] | IC50 [4] [nM] | EC50 [6] [nM] | Compound | IC50 [1] [nM] | IC50 [2] [nM] | also measured
1 | 200 | 200 | 523 | COc1cc(/C=C\c2cc3cc(F)ccc3s2)cc(OC)c1OC |  | 38 | 
2 | 360 | 120 | 555 | COc1cc(/C=C\c2sc3ccccc3c2C)cc(OC)c1OC |  | 61 | 
3 |  |  | 717 | COc1cc(/C=C\c2cc3cc(O)ccc3s2)cc(OC)c1OC |  |  | 
4 | 7.9 | 7.8 |  | COc1cc(/C=C\c2cc3ccccc3s2)cc(OC)c1OC | 19 | 7.6 | 
5 | > 1000 | > 1000 | > 10000 | COc1ccsc1/C=C\c1cc(OC)c(OC)c(OC)c1 |  | > 1000 | 

More lines, now with the values behind:

Row | Compound | IC50 [3] [nM] | IC50 [4] [nM] | EC50 [6] [nM] | IC50 [1] [nM] | IC50 [2] [nM] | also measured
6 | COc1ccc(/C=C\c2cc(OC)c(OC)c(OC)c2)s1 |  |  |  | 75 |  | 
7 | COc1cc2c(c(OC)c1OC)-c1ccc(OC)c(=O)cc1[C@@H](NC(C)=O)CC2 [COLCHICINE] | 14 | 6.1 |  | 757 | 4.4 | 
8 | COc1cc(C(=O)C(=O)c2cc3ccccc3s2)cc(OC)c1OC |  |  |  |  |  | inhibition [5]: 35%
9 | COc1ccc(/C=C\c2cc(OC)c(OC)c(OC)c2)cc1O [COMBRETASTATIN A4] | 2.5 | 2.1 |  | 3 | 1.4 | Activity [7]: 34.9%; Activity [8]: 19.3%; Activity [9]: 30.1%; Activity [10]: 45%
10 | COc1csc(/C=C\c2cc(OC)c(OC)c(OC)c2)c1 | 13 | 14 |  | 27 | 11 | Activity [7]: 23.4%; Activity [8]: 15.6%; Activity [11]: 48.8%; Activity [12]: inactive; Activity [10]: 45%
11 | C=C(c1cc(OC)c(OC)c(OC)c1)c1cc2ccccc2s1 |  |  |  | 150 |  | 
12 | COc1cc(/C=C\c2csc3ccccc23)cc(OC)c1OC |  |  |  | 288 |  | 
13 | COc1ccc2sc(/C=C\c3cc(OC)c(OC)c(OC)c3)cc2c1 |  |  |  |  |  | inhibition [13]: 62%; inhibition [14]: 14%

From ChEMBL document CHEMBL4732231, “Combretastatin A-4 sulfur-containing heterocyclic derivatives: Synthesis, antiproliferative activities and molecular docking studies” (Eur J Med Chem, 2021)
